In ChEMBL document CHEMBL5500384, “New synergistic benzoquinone scaffolds as inhibitors of mycobacterial cytochrome bc1 complex to treat multi-drug resistant tuberculosis” (Eur J Med Chem, 2024):
Values after ≈ are worked out from the molar mass of the structure shown.

What was measured:
[1] = test system: Mycobacterium tuberculosis; assay: Antitubercular activity against Mycobacterium tuberculosis H37Rv incubated for 5 days by microtiter plate method; assay type: functional; conditions: 120 h, time 5 day
[2] = Acute toxicity in Albino mouse assessed as change in serum urea level at 50 to 2000 mg/kg, po measured after 14 days (reference value: 46 mg/dl); assay type: organism-based; conditions: in vivo, 336 h, dose 50-2000 mg/kg, time 14 day
[3] = Hepatotoxicity in Albino mouse assessed as change in portal tracks at 50 to 2000 mg/kg, po measured after 14 days; assay type: toxicity, organism-based; conditions: in vivo, 336 h, dose 50-2000 mg/kg, time 14 day
[4] = Hepatotoxicity in Albino mouse assessed as change in hepatic artery at 50 to 2000 mg/kg, po measured after 14 days; assay type: toxicity, organism-based, Liver; conditions: in vivo, 336 h, dose 50-2000 mg/kg, time 14 day
[5] = Acute toxicity in po dosed Albino mouse assessed as mortality after 14 days; assay type: organism-based; conditions: in vivo, time 14 day
[6] = Acute toxicity in Albino mouse assessed as change in monocytes at 50 to 2000 mg/kg, po measured after 14 days (reference value: 1%); assay type: organism-based; conditions: in vivo, 336 h, dose 50-2000 mg/kg, time 14 day
[7] = Renal toxicity in Albino mouse assessed as extravasation of RBC at 50 to 2000 mg/kg, po measured after 14 days; assay type: organism-based, Erythrocyte; conditions: in vivo, 336 h, dose 50-2000 mg/kg, time 14 day
[8] = Pulmonary toxicity in Albino mouse assessed as change in bronchi structure at 50 to 2000 mg/kg, po measured after 14 days; assay type: organism-based; conditions: in vivo, 336 h, dose 50-2000 mg/kg, time 14 day
[9] = Acute toxicity in Albino mouse assessed as change in ALP level at 50 to 2000 mg/kg, po measured after 14 days (reference value: 28 IU/L); assay type: organism-based; conditions: in vivo, 336 h, dose 50-2000 mg/kg, time 14 day
[10] = Pulmonary toxicity in Albino mouse assessed as change in alveolar sacs at 50 to 2000 mg/kg, po measured after 14 days; assay type: organism-based; conditions: in vivo, 336 h, dose 50-2000 mg/kg, time 14 day
[11] = Acute toxicity in Albino mouse assessed as change in SGPT count at 50 to 2000 mg/kg, po measured after 14 days (reference value: 52 IU/L); assay type: organism-based; conditions: in vivo, 336 h, dose 50-2000 mg/kg, time 14 day
[12] = Renal toxicity in Albino mouse assessed as change in proximal convoluted tubules at 50 to 2000 mg/kg, po measured after 14 days; assay type: organism-based; conditions: in vivo, 336 h, dose 50-2000 mg/kg, time 14 day
[13] = Acute toxicity in Albino mouse assessed as change in lymphocytes at 50 to 2000 mg/kg, po measured after 14 days (reference value: 21%); assay type: organism-based; conditions: in vivo, 336 h, dose 50-2000 mg/kg, time 14 day
[14] = Acute toxicity in Albino mouse assessed as change in eosinophils at 50 to 2000 mg/kg, po measured after 14 days (reference value: 3%); assay type: organism-based; conditions: in vivo, 336 h, dose 50-2000 mg/kg, time 14 day
[15] = Acute toxicity in Albino mouse assessed as change in RBC count measured per million cells at 50 to 2000 mg/kg, po measured after 14 days (reference value: 9.15 microL); assay type: organism-based, Erythrocyte; conditions: in vivo, 336 h, dose 50-2000 mg/kg, time 14 day
[16] = Renal toxicity in Albino mouse assessed as change in renal tubules at 50 to 2000 mg/kg, po measured after 14 days; assay type: organism-based; conditions: in vivo, 336 h, dose 50-2000 mg/kg, time 14 day
[17] = Acute toxicity in Albino mouse assessed as mortality at 50 mg/kg, po after 14 days; assay type: organism-based; conditions: in vivo, 336 h, time 14 day
[18] = Acute toxicity in Albino mouse assessed as change in total leucocyte count at 50 to 2000 mg/kg, po measured after 14 days (reference value: 7400 mm3); assay type: organism-based; conditions: in vivo, 336 h, dose 50-2000 mg/kg, time 14 day
[19] = Renal toxicity in Albino mouse assessed as structural absorbability abnormalities at 50 to 2000 mg/kg, po measured after 14 days; assay type: organism-based; conditions: in vivo, 336 h, dose 50-2000 mg/kg, time 14 day
[20] = Acute toxicity in Albino mouse assessed as change in LDH level at 50 to 2000 mg/kg, po measured after 14 days (reference value: 1052 IU/L); assay type: organism-based; conditions: in vivo, 336 h, dose 50-2000 mg/kg, time 14 day
[21] = Pulmonary toxicity in Albino mouse assessed as appearance of cilia at 50 to 2000 mg/kg, po measured after 14 days; assay type: organism-based; conditions: in vivo, 336 h, dose 50-2000 mg/kg, time 14 day
[22] = Cytotoxicity against african green monkey Vero cells assessed as cell viability at 100 ug/ml by MTT assay; assay type: toxicity, cell-based; conditions: chlorocebus sabaeus, at 100 µg/mL, read-out: Activity
[23] = Hepatotoxicity in Albino mouse assessed as change in central vein at 50 to 2000 mg/kg, po measured after 14 days; assay type: toxicity, organism-based; conditions: in vivo, 336 h, dose 50-2000 mg/kg, time 14 day
[24] = Acute toxicity in Albino mouse assessed as mortality at 300 mg/kg, po after 5 to 8 hrs; assay type: organism-based; conditions: in vivo, time 5-8 hrs
[25] = Hepatotoxicity in Albino mouse assessed as change in hepatocytes at 50 to 2000 mg/kg, po measured after 14 days; assay type: toxicity, organism-based; conditions: in vivo, 336 h, dose 50-2000 mg/kg, time 14 day
[26] = Pulmonary toxicity in Albino mouse assessed as change in squamous pneumocytes at 50 to 2000 mg/kg, po measured after 14 days; assay type: organism-based; conditions: in vivo, 336 h, dose 50-2000 mg/kg, time 14 day
[27] = Pulmonary toxicity in Albino mouse assessed as appearance of goblet cells at 50 to 2000 mg/kg, po measured after 14 days; assay type: organism-based; conditions: in vivo, 336 h, dose 50-2000 mg/kg, time 14 day
[28] = Acute toxicity in Albino mouse assessed as change in neutrophils at 50 to 2000 mg/kg, po measured after 14 days (reference value: 75%); assay type: organism-based; conditions: in vivo, 336 h, dose 50-2000 mg/kg, time 14 day
[29] = Acute toxicity in Albino mouse assessed as change in hemoglobin level at 50 to 2000 mg/kg, po measured after 14 days (reference value: 12.8 g/dl); assay type: organism-based; conditions: in vivo, 336 h, dose 50-2000 mg/kg, time 14 day
[30] = Cytotoxicity against african green monkey Vero cells assessed as cell viability at 12.5 ug/ml by MTT assay; assay type: toxicity, cell-based; conditions: chlorocebus sabaeus, at 12.5 µg/mL, read-out: Activity
[31] = Acute toxicity in Albino mouse assessed as change in ESR at 50 to 2000 mg/kg, po measured after 14 days (reference value: 10 millimeter); assay type: organism-based; conditions: in vivo, 336 h, dose 50-2000 mg/kg, time 14 day
[32] = Acute toxicity in Albino mouse assessed as change in serum creatine level at 50 to 2000 mg/kg, po measured after 14 days (reference value: 0.9 mg/dl); assay type: organism-based; conditions: in vivo, 336 h, dose 50-2000 mg/kg, time 14 day
[33] = Renal toxicity in Albino mouse assessed as change in distal convoluted tubules at 50 to 2000 mg/kg, po measured after 14 days; assay type: organism-based; conditions: in vivo, 336 h, dose 50-2000 mg/kg, time 14 day
[34] = Hepatotoxicity in Albino mouse assessed as change in bile duct at 50 to 2000 mg/kg, po measured after 14 days; assay type: toxicity, organism-based, Liver; conditions: in vivo, 336 h, dose 50-2000 mg/kg, time 14 day
[35] = Renal toxicity in Albino mouse assessed as change in tubular capillaries at 50 to 2000 mg/kg, po measured after 14 days; assay type: organism-based; conditions: in vivo, 336 h, dose 50-2000 mg/kg, time 14 day
[36] = Acute toxicity in Albino mouse assessed as change in SGOT count at 50 to 2000 mg/kg, po measured after 14 days (reference value: 42 IU/L); assay type: organism-based; conditions: in vivo, 336 h, dose 50-2000 mg/kg, time 14 day
[37] = Cytotoxicity against african green monkey Vero cells assessed as cell viability at 3.125 ug/ml by MTT assay; assay type: toxicity, cell-based; conditions: chlorocebus sabaeus, at 3.125 µg/mL, read-out: Activity
[38] = Cytotoxicity against african green monkey Vero cells assessed as cell viability at 25 ug/ml by MTT assay; assay type: toxicity, cell-based; conditions: chlorocebus sabaeus, at 25 µg/mL, read-out: Activity
[39] = Pulmonary toxicity in Albino mouse assessed as change in alveoli structure at 50 to 2000 mg/kg, po measured after 14 days; assay type: organism-based; conditions: in vivo, 336 h, dose 50-2000 mg/kg, time 14 day
[40] = Renal toxicity in Albino mouse assessed as change in renal corpuscles at 50 to 2000 mg/kg, po measured after 14 days; assay type: organism-based; conditions: in vivo, 336 h, dose 50-2000 mg/kg, time 14 day
[41] = Cytotoxicity against african green monkey Vero cells assessed as cell viability at 50 ug/ml by MTT assay; assay type: toxicity, cell-based; conditions: chlorocebus sabaeus, at 50 µg/mL, read-out: Activity
[42] = Cytotoxicity against african green monkey Vero cells assessed as cell viability at 6.25 ug/ml by MTT assay; assay type: toxicity, cell-based; conditions: chlorocebus sabaeus, at 6.25 µg/mL, read-out: Activity
[43] = Hepatotoxicity in Albino mouse assessed as change in portal vein at 50 to 2000 mg/kg, po measured after 14 days; assay type: toxicity, organism-based; conditions: in vivo, 336 h, dose 50-2000 mg/kg, time 14 day
[44] = Acute toxicity in Albino mouse assessed as mortality at 2000 mg/kg, po after 2 to 4 hrs; assay type: organism-based; conditions: in vivo, time 2-4 hrs
[45] = Renal toxicity in Albino mouse assessed as change in Bowman's capsule at 50 to 2000 mg/kg, po measured after 14 days; assay type: organism-based; conditions: in vivo, 336 h, dose 50-2000 mg/kg, time 14 day

NNC(=O)c1ccncc1 [ISONIAZID]
MIC [1]: 1.82 µM (≈ 0.25 µg/mL)

CO[C@H]1/C=C/O[C@@]2(C)Oc3c(C)c(O)c4c(O)c(c(/C=N/N5CCN(C)CC5)c(O)c4c3C2=O)NC(=O)/C(C)=C\C=C\[C@H](C)[C@H](O)[C@@H](C)[C@@H](O)[C@@H](C)[C@H](OC(C)=O)[C@@H]1C [RIFAMPIN]
MIC [1]: 0.3 µM (≈ 0.247 µg/mL)

NC1=C(Cl)C(=O)c2ccccc2C1=O
Activity [2]: 68 mg/dL
Activity [3]: Non-Toxic
Activity [4]: Non-Toxic
LD50 at 336 h [5]: 50 mg/kg
Activity [6]: 1%
Activity [7]: Non-Toxic
Activity [8]: Non-Toxic
MIC [1]: 15.1 µM (≈ 3.12 µg/mL)
Activity [9]: 40 IU/L
Activity [10]: Non-Toxic
Activity [11]: 26 IU/L
Activity [12]: Non-Toxic
Activity [13]: 36%
Activity [14]: 5%
Activity [15]: 4.53 10^6 cells/µL
Activity [16]: Non-Toxic
Activity [17]: Non-Toxic
Activity [18]: 3900 cells/mm3
Activity [19]: Non-Toxic
Activity [20]: 1519 IU/L
Activity [21]: Non-Toxic
viability at 100 ug/ml [22]: 3.1%
Activity [23]: Non-Toxic
Activity [24]: Toxic
Activity [25]: Non-Toxic
Activity [26]: Non-Toxic
Activity [27]: Non-Toxic
Activity [28]: 58%
Activity [29]: 13.6 g/dL
viability at 12.5 ug/ml [30]: 31%
Activity [31]: 16 millimeter/hr
Activity [32]: 0.9 mg/dL
Activity [33]: Non-Toxic
Activity [34]: Non-Toxic
Activity [35]: Non-Toxic
Activity [36]: 34 IU/L
viability at 3.125 ug/ml [37]: 60%
viability at 25 ug/ml [38]: 18%
Activity [39]: Non-Toxic
Activity [40]: Non-Toxic
viability at 50 ug/ml [41]: 9.3%
viability at 6.25 ug/ml [42]: 55%
Activity [43]: Non-Toxic
Activity [44]: Toxic
Activity [45]: Non-Toxic
